Data from the NIST ThermoML archive (doi:10.1021/je900596d).

Conditions: for mass density: Vibrating tube method; for vapor or sublimation pressure: Closed cell (Static) method

FC(F)=C(F)C(F)(F)F [hexafluoropropene]
Conditions | mass density [kg/m3]
303.36 K, 1884.5 kPa, Liquid | 1299.72
303.36 K, 1906.2 kPa, Liquid | 1300.05
303.36 K, 1950 kPa, Liquid | 1300.59
303.36 K, 1985.6 kPa, Liquid | 1301.03
303.36 K, 2016.6 kPa, Liquid | 1301.15
303.36 K, 2051.2 kPa, Liquid | 1301.63
303.36 K, 2084.4 kPa, Liquid | 1301.95
303.36 K, 2119.1 kPa, Liquid | 1302.35
303.36 K, 2170.3 kPa, Liquid | 1302.96
303.36 K, 2204.1 kPa, Liquid | 1303.24
303.36 K, 2239.2 kPa, Liquid | 1303.63
303.36 K, 2326 kPa, Liquid | 1304.46
303.36 K, 2359.9 kPa, Liquid | 1304.86
303.36 K, 2392.6 kPa, Liquid | 1305.27
303.36 K, 2427 kPa, Liquid | 1305.54
303.36 K, 2445.1 kPa, Liquid | 1305.96
303.36 K, 2496.7 kPa, Liquid | 1306.19
303.36 K, 2513.8 kPa, Liquid | 1306.54
303.36 K, 2546.9 kPa, Liquid | 1306.82
303.36 K, 2585.2 kPa, Liquid | 1307.14
303.36 K, 2621.3 kPa, Liquid | 1307.6
303.36 K, 2688.6 kPa, Liquid | 1308.11
303.36 K, 2773.2 kPa, Liquid | 1309.07
303.36 K, 2808 kPa, Liquid | 1309.41
303.36 K, 2842.3 kPa, Liquid | 1309.71
303.36 K, 2874.3 kPa, Liquid | 1310.03
303.36 K, 2907.2 kPa, Liquid | 1310.3
303.36 K, 2940.3 kPa, Liquid | 1310.77
303.36 K, 3022.9 kPa, Liquid | 1311.53
303.36 K, 3048.7 kPa, Liquid | 1311.84
303.36 K, 3100.9 kPa, Liquid | 1312.32
303.36 K, 3125.6 kPa, Liquid | 1312.63
303.36 K, 3150.3 kPa, Liquid | 1312.98
303.36 K, 3176.4 kPa, Liquid | 1313.02
303.36 K, 3201.4 kPa, Liquid | 1313.32
303.36 K, 3226.8 kPa, Liquid | 1313.58
303.36 K, 3276.7 kPa, Liquid | 1313.98
303.36 K, 3325.1 kPa, Liquid | 1314.49
303.36 K, 3349.9 kPa, Liquid | 1314.75
303.36 K, 3375.9 kPa, Liquid | 1314.91
303.36 K, 3401.4 kPa, Liquid | 1315.17
303.36 K, 3428.7 kPa, Liquid | 1315.55
303.36 K, 3457.9 kPa, Liquid | 1315.79
303.36 K, 3482.4 kPa, Liquid | 1315.97
303.36 K, 3532.9 kPa, Liquid | 1316.48
303.36 K, 3636.8 kPa, Liquid | 1317.48
303.36 K, 3692 kPa, Liquid | 1318.07
303.36 K, 3744.5 kPa, Liquid | 1318.56
303.36 K, 3799.6 kPa, Liquid | 1319.05
303.36 K, 3852.6 kPa, Liquid | 1319.41
303.36 K, 3906.9 kPa, Liquid | 1319.99
303.36 K, 3959.3 kPa, Liquid | 1320.51
303.36 K, 4068.1 kPa, Liquid | 1321.53
303.36 K, 4117.4 kPa, Liquid | 1322.06
303.36 K, 4226.8 kPa, Liquid | 1323.01
303.36 K, 4279 kPa, Liquid | 1323.53
303.36 K, 4384.9 kPa, Liquid | 1324.43
303.36 K, 4442 kPa, Liquid | 1324.86
303.36 K, 4491.1 kPa, Liquid | 1325.26
303.36 K, 4545.1 kPa, Liquid | 1325.86
303.36 K, 4652.9 kPa, Liquid | 1326.85
303.36 K, 4706.2 kPa, Liquid | 1327.25
303.36 K, 4761.9 kPa, Liquid | 1327.67
303.36 K, 4810.6 kPa, Liquid | 1328.19
303.36 K, 4861.8 kPa, Liquid | 1328.62
303.36 K, 4913.7 kPa, Liquid | 1329.12
303.36 K, 4970 kPa, Liquid | 1329.46
303.36 K, 5017 kPa, Liquid | 1329.84
303.36 K, 5088.1 kPa, Liquid | 1330.55
303.36 K, 5216.5 kPa, Liquid | 1331.6
303.36 K, 5343.2 kPa, Liquid | 1332.68
303.36 K, 5408.2 kPa, Liquid | 1333.2
303.36 K, 5478.7 kPa, Liquid | 1333.8
303.36 K, 5540.7 kPa, Liquid | 1334.24
303.36 K, 5605.9 kPa, Liquid | 1334.94
303.36 K, 5666.1 kPa, Liquid | 1335.34
303.36 K, 5731.3 kPa, Liquid | 1335.77
303.36 K, 5921.6 kPa, Liquid | 1337.37
303.36 K, 5981.8 kPa, Liquid | 1337.85
303.36 K, 6042.7 kPa, Liquid | 1338.34
303.36 K, 6104.9 kPa, Liquid | 1338.9
303.36 K, 6169.9 kPa, Liquid | 1339.47
303.36 K, 6232.2 kPa, Liquid | 1339.84
303.36 K, 6297.1 kPa, Liquid | 1340.49
303.36 K, 6362 kPa, Liquid | 1340.92
303.36 K, 6487 kPa, Liquid | 1341.93
303.36 K, 6549.6 kPa, Liquid | 1342.5
303.36 K, 6613.9 kPa, Liquid | 1342.92
303.36 K, 6678.1 kPa, Liquid | 1343.42
303.36 K, 6742 kPa, Liquid | 1343.99
303.36 K, 6802.7 kPa, Liquid | 1344.44
303.36 K, 6864.7 kPa, Liquid | 1344.88
303.36 K, 6928 kPa, Liquid | 1345.36
303.36 K, 7053.8 kPa, Liquid | 1346.25
303.36 K, 7120.4 kPa, Liquid | 1346.76
303.36 K, 7184.3 kPa, Liquid | 1347.25
303.36 K, 7245.2 kPa, Liquid | 1347.73
303.36 K, 7308.5 kPa, Liquid | 1348.26
303.36 K, 7370.8 kPa, Liquid | 1348.64
303.36 K, 7436.1 kPa, Liquid | 1349.17
303.36 K, 7499.7 kPa, Liquid | 1349.66
303.36 K, 7563.6 kPa, Liquid | 1350.15
303.36 K, 7689.6 kPa, Liquid | 1351.05
303.36 K, 7751.3 kPa, Liquid | 1351.45
303.36 K, 7812.7 kPa, Liquid | 1351.9
303.36 K, 7879.7 kPa, Liquid | 1352.39
303.36 K, 7943 kPa, Liquid | 1352.95
303.36 K, 8005.8 kPa, Liquid | 1353.4
303.36 K, 8100.6 kPa, Liquid | 1353.99
303.36 K, 8290.6 kPa, Liquid | 1355.42
303.36 K, 8481.2 kPa, Liquid | 1356.76
303.36 K, 8578.2 kPa, Liquid | 1357.54
303.36 K, 8675.5 kPa, Liquid | 1358.15
303.36 K, 8768.5 kPa, Liquid | 1358.79
303.36 K, 8868.4 kPa, Liquid | 1359.47
303.36 K, 8967.8 kPa, Liquid | 1360.24
303.36 K, 9068.6 kPa, Liquid | 1360.85
303.36 K, 9168.1 kPa, Liquid | 1361.57
303.36 K, 9265.9 kPa, Liquid | 1362.22
303.36 K, 9367 kPa, Liquid | 1362.91
303.36 K, 9568.1 kPa, Liquid | 1364.22
303.36 K, 9667.3 kPa, Liquid | 1364.9
303.36 K, 9768.6 kPa, Liquid | 1365.55
303.36 K, 9865.8 kPa, Liquid | 1366.04
303.36 K, 9961.4 kPa, Liquid | 1366.81
303.36 K, 9992.6 kPa, Liquid | 1366.98
323.21 K, 7 kPa, Fluid (supercritical or subcritical phases) | 0.29
323.21 K, 10.8 kPa, Fluid (supercritical or subcritical phases) | 0.58
323.21 K, 14.3 kPa, Fluid (supercritical or subcritical phases) | 0.86

Liquid
Conditions | vapor or sublimation pressure [kPa]
308.21 K | 963.4
313.21 K | 1099.9
318.22 K | 1250.6
323.2 K | 1413.5
